{"source": "paper PMC6161288", "about": "“Bioavailability of Eurycomanone in Its Pure Form and in a Standardised Eurycoma longifolia Water Extract” (Pharmaceutics, 2018)", "key": {"[1]": {"test": "Chemical stability in simulated gastrointestinal fluids", "format": "physicochemical", "conditions": "GSF (pH 2), FESSIF (pH 5.0), FASSIF (pH 6.5)", "protocol": "The chemical stability of eurycomanone was estimated in gastric simulated fluid (GSF), pH 2; fasted simulated intestinal fluid (FASSIF), pH 6.5; fed simulated intestinal fluid (FESSIF), pH 5.0; and in 150 mM NaHCO3 at pH 9.2. Eurycomanone (3 µL) at 5 mM was added to 297 µL of the respective buffers. The mixture (100 µL) was added to 100 µL of ACN at time points 1 and 3 h and sent for LC-MS/MS analysis."}, "[2]": {"test": "Plasma stability, dog", "format": "in vitro ADME", "conditions": "5 µM, 37 °C, up to 4 h", "protocol": "(§1) The plasma stability was estimated by preparing 5 µM of eurycomanone in 600 µL plasma in triplicates. The plasma stability of eurycomanone was determined in five types of plasma (mice, rat, dog, monkey, and human). The reaction was kept at 37 °C and ACN (100 µL) was added at timepoints 0, 30 min, and 1, 2, and 4 h to the reaction mixture (100 µL). The supernatant (10,000 rpm, 10 min, 4 °C) was collected and analysed by LC-MS/MS. The standards (propantheline bromide and enalapril) were analysed in triplicates."}, "[3]": {"system": "plasma protein", "test": "Plasma protein binding (rapid equilibrium dialysis), human", "format": "in vitro ADME", "conditions": "range over all species' plasma apart from dog (rat, monkey, mice, human)", "protocol": "(§2) The ability of eurycomanone to bind plasma protein was analysed in five types of plasma (mice, rat, dog, monkey, and human). Each type of plasma was spiked with eurycomanone (1 mM) to make the 10 µM test concentration of eurycomanone in the plasma. Equilibrium dialysis buffer (500 µL) at pH 7.4 was added to the right chamber in rapid equilibrium dialysis (RED), while the spiked plasma (300 µL) was added to the left chamber. The Teflon base plate was covered with aluminium foil and left on the shaking incubator at 37 °C for 4 h. The matrix was balanced by mixing 100 µL of the equilibrium buffer with the spiked plasma from the left chamber in RED before adding the stop solution (350 µL) to precipitate out the protein. The supernatant (10,000 rpm, 10 min, 4 °C) was collected and analysed using LC-MS/MS. The standards (propranolol, warfarin, and acebutalol) were analysed in duplicates."}, "[4]": {"test": "Plasma protein binding (rapid equilibrium dialysis), human", "format": "in vitro ADME", "conditions": "pH 7.4; human plasma, 10 µM, 37 °C, 4 h; read-out: percentage bound to plasma protein (converted)", "protocol": "as §2"}, "[5]": {"test": "Plasma stability, human", "format": "in vitro ADME", "conditions": "5 µM, 37 °C, up to 4 h", "protocol": "as §1"}, "[6]": {"test": "Plasma protein binding (rapid equilibrium dialysis), dog", "format": "in vitro ADME", "conditions": "pH 7.4, 37 °C, read-out: percentage bound to plasma protein (converted)", "protocol": "as §2"}, "[7]": {"parameters": "method as in PMID 27572280", "conditions": "cited from earlier work"}, "[8]": {"test": "Rat liver hepatocyte stability", "format": "in vitro ADME", "conditions": "rat liver hepatocytes"}, "[9]": {"test": "Plasma stability, mice", "format": "in vitro ADME", "conditions": "5 µM, 37 °C, up to 4 h, compared with human, rat and dog plasma", "protocol": "as §1"}, "[10]": {"test": "Aqueous solubility", "format": "physicochemical", "conditions": "aqueous buffer, kinetic from dmso stock, room temperature, 2% DMSO", "protocol": "The aqueous […] was estimated by adding 10 µL of eurycomanone stock solution (10 mM) to 490 µL of aqueous buffer at pH 5.4, pH 7.4 and DMSO in triplicates in deep-well plates. […] The plate was kept on a shaker (300 rpm) at room temperature for 16 h. The plate was then centrifuged at 25 °C, 4000 rpm for 25 min. The supernatant was transferred and analysed using LC-MS/MS.\nPeak area 1 = peak area of the compound in 2% DMSO at the different pH levels.\nPeak area 2 = peak area of the compound in 100% DMSO."}, "[11]": {"system": "plasma protein", "test": "Plasma protein binding (rapid equilibrium dialysis), rat", "format": "in vitro ADME", "conditions": "rat plasma, 10 µM, 37 °C, 4 h", "protocol": "as §2"}, "[12]": {"test": "Plasma protein binding (rapid equilibrium dialysis), rat", "format": "in vitro ADME", "conditions": "rat, plasma, pH 7.4, rat plasma", "protocol": "as §2"}, "[13]": {"test": "Caco-2 cell permeability assay", "format": "in vitro ADME", "conditions": "human", "protocol": "The Caco-2 assay was carried out after seeding the cells onto the membrane to form a confluent monolayer in 21 days. The media is removed from apical (A) and basolateral (B) chambers and the membrane is washed with HBSS buffer. Eurycomanone (10 µM, 200 µL) was added to the A compartment (which represents the intestinal lumen), and buffer (300 µL) was added to the B compartment (representing the blood), and vice versa. The plate was kept in a shaking incubator (37 °C) for 1 h. The amount of eurycomanone that had permeated across the cells was measured by LC-MS/MS, and the apparent permeability (Papp) values and efflux ratio were calculated. The expression of P-glycoprotein (P-gp) by differentiated Caco-2 cells was confirmed by measuring the Papp value and efflux ratio of vinblastine with and without the presence of a competing P-gp substrate, cyclosporine A. Eurycomanone was also measured with the presence of cyclosporine A to investigate whether eurycomanone may be transported via P-gp transporters."}, "[14]": {"test": "Lipophilicity, shake flask method with octanol and buffer (pH 7.4)", "format": "physicochemical", "conditions": "pH 7.4, octanol/buffer shake flask; read-out: distribution coefficient log D", "protocol": "The lipophilicity of eurycomanone was estimated using the shake flask method with octanol and buffer (pH 7.4). Eurycomanone (5 µL) at 5 mM concentration is added to octanol (495 µL) and DMSO (495 µL) and also into the aqueous and octanol phase in a 1:1 ratio ([…] of octanol phase and 247.5 µL of aqueous phase). The octanol and aqueous phases were prepared using a saturation process, where equal amounts of D-PBS (pH 7.4) and octanol were saturated (300 rpm, room temperature) for 24 h before being separated and kept at room temperature. The prepared mixtures were vortexed and kept on the shaker (300 rpm) at room temperature for 16 h. The mixtures were allowed to stand for 30 min, and 200 µL of solution was transferred and sent for HPLC analysis."}}, "data": [{"smiles": "C=C1[C@@H](O)[C@]2(O)OC[C@]34[C@H]2[C@@]2(C)[C@H](O)C(=O)C=C(C)[C@@H]2C[C@H]3OC(=O)[C@H](O)[C@@]14O", "note": "[Eurycomanone]", "values": [{"measurement": "chemical stability (percentage remaining after 3 h of incubation)", "setting": "[1]", "value": "high stability"}, {"measurement": "chemical stability (percentage remaining after 3 h of incubation)", "setting": "[1]; listed as eurycomanone", "value": "chemically stable across all pH values tested"}, {"measurement": "plasma stability", "setting": "[2]", "value": "highly stable"}, {"measurement": "fraction of unbound eurycomanone", "setting": "[3]", "value": "61.1–78.4%"}, {"measurement": "fraction unbound at 4 h, 10 µM", "setting": "[4]", "value": 0.611}, {"measurement": "plasma stability", "setting": "[5]", "value": "highly stable"}, {"measurement": "fraction unbound at 4 h, 10 µM", "setting": "[6]", "value": 0.322}, {"measurement": "Cmax", "setting": "[7]", "value": 40.43, "unit": "ng/mL"}, {"measurement": "Half-life (t1/2)", "setting": "[8]", "value": ">1.5", "unit": "h"}, {"measurement": "half-life", "setting": "[8]", "value": "> 1.5", "unit": "h"}, {"measurement": "hepatocyte CLint", "setting": "[8]; read-out: Intrinsic clearance (Clint)", "value": 0.67, "unit": "µL/min/1e6 cells"}, {"measurement": "plasma stability", "setting": "[9]", "value": "slightly lower"}, {"measurement": "solubility at 16 h", "setting": "[10]; pH 5.4, 16 h", "value": 206, "unit": "µM"}, {"measurement": "solubility at 16 h", "setting": "[10]; pH 7.4, 16 h", "value": 205, "unit": "µM"}, {"measurement": "percentage bound to plasma protein", "setting": "[11]", "value": 30, "unit": "%"}, {"measurement": "fraction unbound at 4 h, 10 µM", "setting": "[12]; 10 µM, 37 °C, 4 h, read-out: percentage bound to plasma protein (converted)", "value": 0.699}, {"measurement": "fraction unbound at 4 h, 10 µM", "setting": "[12]; read-out: unbound fraction", "value": 0.7}, {"measurement": "Papp at 1 h, 10 µM", "setting": "[13]; Caco-2, Caco-2, A to B", "value": 0.45, "unit": "×10⁻⁶ cm/s"}, {"measurement": "Papp at 1 h, 10 µM", "setting": "[13]; Caco-2, Caco-2, B to A", "value": 0.73, "unit": "×10⁻⁶ cm/s"}, {"measurement": "efflux ratio at 1 h, 10 µM", "setting": "[13]; Caco-2, Caco-2, read-out: Efflux Ratio", "value": "< 2"}, {"measurement": "logD at 16 h", "setting": "[14]", "value": -0.35}]}]}
